Assay: Dynamic vapor sorption (DVS) analysis
Assay type: physicochemical
Conditions: bulk material, a batch of Compound 1; FIG. 5

For CCOC(=O)c1cnc2[nH]ccc2c1N[C@@H]1CCCN(C(=O)CC#N)C1 [Compound 1, ethyl (R)-4-((1-(2-cyanoacetyl)piperidin-3-yl)amino)-1H-pyrrolo[2,3-b]pyridine-5-carboxylate], the “moisture uptake (DVS isotherms)” value was “low moisture uptake”.

Reference: US20230365555A1, “CRYSTALLINE POLYMORPH FORM A OF A JAK INHIBITORAND METHODS FOR ITS PREPARATION” (ACLARIS THERAPEUTICS, INC., priority 2020, published 2023)
